Positions of bridges follow the written chain, without caps; N, C: chain ends. Non-standard residues stand in square brackets, D forms with d. Residues, ends and D or L forms follow the SMILES beside them. 2Thi = N[C@@H](Cc1cccs1)C(=O)O; Cha = N[C@@H](CC1CCCCC1)C(=O)O
Each compound was assayed against T1, endothelin receptor (Bos taurus, UniProt P28088) (assay: Endothelin receptor-antagonizing activity: inhibition of 125I-endothelin-1 binding to bovine cerebellum membrane fraction). Details: 125I-Endothelin-1, bovine cerebellum membrane fraction, 25° C. for 2 hours; read-out: IC50: Concentration causing 50% inhibition of endothelin1 binding.
T1 construct: the suspension was used as a membrane fraction liquid; from tissue; host or cells: bovine cerebellum membrane fraction
T1 sequence (P28088 27-441): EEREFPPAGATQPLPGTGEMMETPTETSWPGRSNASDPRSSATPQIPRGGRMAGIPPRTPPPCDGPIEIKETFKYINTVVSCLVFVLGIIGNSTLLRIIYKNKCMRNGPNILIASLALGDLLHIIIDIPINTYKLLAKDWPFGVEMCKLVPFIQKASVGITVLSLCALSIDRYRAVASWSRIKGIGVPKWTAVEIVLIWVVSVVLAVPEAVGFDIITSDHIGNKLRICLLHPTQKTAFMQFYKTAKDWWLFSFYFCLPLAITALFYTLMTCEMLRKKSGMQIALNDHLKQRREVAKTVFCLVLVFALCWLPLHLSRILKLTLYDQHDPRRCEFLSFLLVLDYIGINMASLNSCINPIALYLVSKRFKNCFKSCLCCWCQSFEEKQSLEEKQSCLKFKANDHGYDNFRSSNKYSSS
Method: Bovine cerebellum tissue was homogenized at 4° C. by using POLYTRON (type PT10/35, manufactured by Kinematic Gmbh Co.) in a buffer solution A (1 mM NaHCO3, 5 mM ethylenediaminetetraacetic acid, 5 μg/ml leupeptin, 5 μg/ml pepstatin A, 40 μM phenylmethylsulfonyl fluoride, pH 8.3).
The obtained suspension was centrifuged for 10 minutes at 8,000 G and 4° C., and the resulting supernatant was centrifuged for 60 minutes at 40,000 G and 4° C. to obtain pellets. The obtained pellets were suspended in a buffer solution A and again centrifuged for 60 minutes at 40,000 G and 4° C. The resulting solid substance was prepared as a suspension containing 2 mg/ml of protein, and the suspension was used as a membrane fraction liquid. […] These mixtures were incubated at 25° C. for 2 hours, and then filtered with a GF/B glass filter (produced by Whatman Co.). […] The inhibition ratio against endothelin receptor binding activity was calculated according to the following equation:
Inhibition ratio (%)=(C-A/C-B)×100
B: Radioactivity in the presence of unlabelled endothelin-1
C: Radioactivity in the absence of both of the compound shown in Table 2 and unlabelled endothelin-1

Point of comparison: H-GNWHGTAPDWVYFAHLNYIW-OH [Compound 20], IC50 12 nM. Against it:
- CC[C@H](C)[C@H](NC(=O)[C@H](CC1CCCCC1)NC(=O)[C@@H](NC(=O)[C@H](CC(C)C)NC(=O)[C@H](Cc1c[nH]cn1)NC(=O)[C@H](C)NC(=O)[C@H](Cc1ccccc1)NC(=O)[C@H](Cc1ccc(O)cc1)NC(=O)[C@@H](NC(=O)[C@H](Cc1c[nH]c2ccccc12)NC(=O)[C@H](CC(=O)O)NC(=O)[C@@H]1CCCN1C(=O)[C@H](C)NC(=O)[C@@H](NC(=O)CNC(=O)[C@H](Cc1c[nH]cn1)NC(=O)[C@H](Cc1c[nH]c2ccccc12)NC(=O)[C@H](CC(N)=O)NC(=O)CN)[C@@H](C)O)C(C)C)[C@@H](C)O)C(=O)N[C@@H](Cc1c[nH]c2ccccc12)C(=O)O [Compound 14, HGlyAsnTrpHisGlyThrAlaProAspTrpValTyrPheAlaHisLeuThrChaIleTrpOH] (H-GNWHGTAPDWVYFAHLT[Cha]IW-OH) — the same, 12 nM
- CC[C@H](C)[C@H](NC(=O)[C@H](Cc1cccs1)NC(=O)[C@@H](NC(=O)[C@H](CC(C)C)NC(=O)[C@H](Cc1c[nH]cn1)NC(=O)[C@H](C)NC(=O)[C@H](Cc1ccccc1)NC(=O)[C@H](Cc1ccc(O)cc1)NC(=O)[C@@H](NC(=O)[C@H](Cc1c[nH]c2ccccc12)NC(=O)[C@H](CC(=O)O)NC(=O)[C@@H]1CCCN1C(=O)[C@H](C)NC(=O)[C@@H](NC(=O)CNC(=O)[C@H](Cc1c[nH]cn1)NC(=O)[C@H](Cc1c[nH]c2ccccc12)NC(=O)[C@H](CC(N)=O)NC(=O)CN)[C@@H](C)O)C(C)C)[C@@H](C)O)C(=O)N[C@@H](Cc1c[nH]c2ccccc12)C(=O)O [Compound 17, HGlyAsnTrpHisGlyThrAlaProAspTrpValTyrPheAlaHisLeuThrThiIleTrpOH] (H-GNWHGTAPDWVYFAHLT[2Thi]IW-OH) — 100-fold lower, 0.12 nM
- CC[C@H](C)[C@@H]1NC(=O)[C@H](Cc2ccccc2)NC(=O)CNC(=O)C[C@@H](C(=O)N[C@@H](Cc2c[nH]c3ccccc23)C(=O)N[C@H](C(=O)N[C@@H](Cc2ccc(O)cc2)C(=O)N[C@@H](Cc2ccccc2)C(=O)N[C@@H](C)C(=O)N[C@@H](Cc2c[nH]cn2)C(=O)N[C@@H](CC(C)C)C(=O)N[C@@H](CC(=O)O)C(=O)N[C@H](C(=O)N[C@H](C(=O)N[C@@H](Cc2c[nH]c3ccccc23)C(=O)O)[C@@H](C)CC)[C@@H](C)CC)C(C)C)NC(=O)[C@H](CC(N)=O)NC(=O)CNC(=O)[C@H](Cc2c[nH]c3ccccc23)NC(=O)CNC1=O [Compound 51] (GFIGWGNDWVYFAHLDIIW-OH; lactam N-8) — 3.6-fold lower, 3.3 nM
- CC[C@H](C)[C@H](NC(=O)[C@H](CC(=O)O)NC(=O)[C@H](CC(C)C)NC(=O)[C@H](Cc1c[nH]cn1)NC(=O)[C@H](C)NC(=O)[C@H](Cc1ccccc1)NC(=O)[C@H](Cc1ccc(O)cc1)NC(=O)[C@@H](NC(=O)[C@H](Cc1c[nH]c2ccccc12)NC(=O)[C@@H]1CC(=O)NCC(=O)N[C@@H](Cc2ccc(O)cc2)C(=O)N2CCC[C@H]2C(=O)N[C@@H](Cc2c[nH]c3ccccc23)C(=O)N[C@@H](Cc2c[nH]c3ccccc23)C(=O)N[C@@H](CC(N)=O)C(=O)N[C@@H](Cc2ccc(O)cc2)C(=O)N[C@@H](CCCNC(=N)N)C(=O)N1)C(C)C)C(=O)N[C@H](C(=O)N[C@@H](Cc1c[nH]c2ccccc12)C(=O)O)[C@@H](C)CC [Compound 52] (GYPWWNYRDWVYFAHLDIIW-OH; lactam N-9) — 1.6-fold higher, 19 nM
- CC[C@H](C)[C@H](NC(=O)[C@H](CC(=O)O)NC(=O)[C@H](CC(C)C)NC(=O)[C@H](Cc1c[nH]cn1)NC(=O)[C@H](C)NC(=O)[C@H](Cc1ccccc1)NC(=O)[C@H](Cc1ccc(O)cc1)NC(=O)[C@@H](NC(=O)[C@H](Cc1c[nH]c2ccccc12)NC(=O)[C@@H]1CC(=O)NCC(=O)N[C@@H](CO)C(=O)N[C@@H](C)C(=O)N[C@@H](C)C(=O)N[C@@H](C(C)C)C(=O)N[C@@H](Cc2ccc(O)cc2)C(=O)N[C@@H](Cc2ccccc2)C(=O)N1)C(C)C)C(=O)N[C@H](C(=O)N[C@@H](Cc1c[nH]c2ccccc12)C(=O)O)[C@@H](C)CC [Compound 53] (GSAAVYFDWVYFAHLDIIW-OH; lactam N-8) — 5-fold lower, 2.4 nM
- H-GDWKGTSPDWVYFAHLDIIW-OH [Compound 6, HGlyAspTrpLysGlyThrSerProAspTrpValTyrPheAlaHisLeuAsplleIleTrpOH] — 110-fold lower, 0.11 nM
- H-GNWHGGAPDWVYFAHLDIIW-OH [Compound 3] — 190-fold lower, 0.064 nM
- H-GNWHGTAADWVYFAHLSMIW-OH [Compound 46] — 15-fold lower, 0.8 nM
- H-GNWHGTAPDAVYFAHLDIIW-OH [Compound 4, HGlyAsnTrPHisGlyThrAlaProAspAlaValTyrPheAlaHisLeuAspIleIleTrpOH] — 55-fold lower, 0.22 nM
- H-GNWHGTAPDWFAHLDIIW-OH [Compound 11, HGlyAsnTrpHisGlyThrAlaProAspTrpPheAlaHisLeuAspIleIleTrpOH] — 2-fold lower, 6.1 nM
- H-GNWHGTAPDWPYFAHLDIIW-OH [Compound 47] — 2.9-fold lower, 4.2 nM
- H-GNWHGTAPDWVYFAHLDIIF-OH [Compound 5] — within 1.5-fold, 11 nM
- H-GNWHGTAPDWVYFAHLDLIW-OH [Compound 16] — 2.2-fold lower, 5.4 nM
- H-GNWHGTAPDWVYFAHLEIIW-OH [Compound 43] — within 1.5-fold, 17 nM
- H-GNWHGTAPDWVYFAHLSMIW-OH [Compound 21] — 12-fold lower, 0.96 nM
- H-GNWHGTAPDWVYFAHLTLIW-OH [Compound 13] — 4.1-fold lower, 2.9 nM
- H-GNWHGTAPDWVYFAHLTMIW-OH [Compound 18] — 7.1-fold lower, 1.7 nM
- H-GNWHGTAPDWVYFAHLTYIW-OH [Compound 19] — 10-fold lower, 1.2 nM
- H-GNWHGTAPDWYFAHLDIIW-OH [Compound 10, HGlyAsnTrpHisGlyThrAlaProAspTrpTyrPheAlaHisLeuAspIleIleTrpOH] — 21-fold lower, 0.57 nM
- H-GNWHTTAPDWVYFAHLDIIW-OH [Compound 2, HGlyAsnTrpHisThrThrAlaProAspTrpValTyrPheAlaHisLeuAspIleleTrpOH] — 200-fold lower, 0.061 nM
- H-HGTAPDWVYFAHLDIIW-OH [Compound 9, HHisGlyThrAlaProAspTrpValTyrPheAlaHisLeuAspIleIleTrpOH] — 140-fold lower, 0.088 nM
- H-NWHGTAPDWVYFAHLDIIW-OH [Compound 7, HAsnTrpHisGlyThrAlaProAspTrpValTyrPheAlaHisLeuAspIleIleTrpOH] — 120-fold lower, 0.1 nM
- H-VYFSHLDIIW-OH [Compound w, H-Val-Tyr-Phe-Ser-His-Leu-Asp-Ile-Ile-Trp-OH, reference compound] — higher, > 1000 nM
- H-WHGTAPDWVYFAHLDIIW-OH [Compound 8, HTrpHisGlyThrAlaProAspTrpValTyrPheAlaHisLeuAspIleIleTrpOH] — 160-fold lower, 0.076 nM

What follows are compounds tested on ET-1 contraction of rat thoracic aorta ring (assay: Inhibitory effect on ET-1 contraction (ring specimen of extracted rat thoracic aorta)). Details: compound 10^-7 M, ET-1 3×10^-9 M, Sprague-Dawley rat thoracic aorta ring, tension relative to norepinephrine maximum.
Method: Test Example 2: Inhibitory Effect On ET-1 Contraction (ring specimen of extracted rat thoracic aorta)
Male Sprague-Dawley rats (Slc. 450-550 g) were anesthetized by intravenous injection of 50 mg/kg of sodium pentobarbital (Nembutal™, Dynabot), and the heads thereof were then incised to die by bleeding. The breasts of the rats were then incised to extract the thoracic aortas therefrom. After the connective tissue which adhered to the blood vessels were removed in a nutrient solution, the blood vessels were cut into rings (3-4 mm), and two metallic holders (one of which was fixed to a support rod) were passed through the blood vessel to prepare a specimen. One end of the holder was mounted on a tension transducer (TB-611T, produced by Nihon Koden) through silk yarn, and the specimen was suspended in a Magnus' tube containing a nutrient solution. Resting tension (1.5 g) was applied to the specimen, and the nutrient solution was replaced several times until the tension was stabilized. Norepinephrine [(±) hydrochloride, Sigma] (10-20 μM) was then added, and the tension generated by contraction of the specimen was measured to determine the maximum value of the tension. The tension generated was detected by the tension transducer, amplified by a pressure strain amplifier (AP-621G, produced by Nihon Koden) and then recorded by a pen recorder (TYPE3066, YOKOGAWA). After the specimen was washed several times to remove Norepinephrine, each of the compounds shown in Table 3 which was dissolved in distilled water was added to the nutrient solution so that the concentration thereof was 10^-7 M, or only distilled water was added thereto in the same volume. […] After the specimens were allowed to stand for 10 minutes, ET-1 was successively added to the nutrient solutions so that the concentration thereof was 3×10^-9 M, and the tension of each of the specimens was measured. The relative value to the maximum tension previously determined was calculated, and the inhibitory effect (% inhibition) on contraction due to ET-1 was determined according to the following equation. […]

Point of comparison: H-GNWHGTAPDWVYFAHLSMIW-OH [Compound 21], “% inhibition of contraction due to ET-1” value 40.4%. Against it:
- CC[C@H](C)[C@H](NC(=O)[C@H](CC1CCCCC1)NC(=O)[C@@H](NC(=O)[C@H](CC(C)C)NC(=O)[C@H](Cc1c[nH]cn1)NC(=O)[C@H](C)NC(=O)[C@H](Cc1ccccc1)NC(=O)[C@H](Cc1ccc(O)cc1)NC(=O)[C@@H](NC(=O)[C@H](Cc1c[nH]c2ccccc12)NC(=O)[C@H](CC(=O)O)NC(=O)[C@@H]1CCCN1C(=O)[C@H](C)NC(=O)[C@@H](NC(=O)CNC(=O)[C@H](Cc1c[nH]cn1)NC(=O)[C@H](Cc1c[nH]c2ccccc12)NC(=O)[C@H](CC(N)=O)NC(=O)CN)[C@@H](C)O)C(C)C)[C@@H](C)O)C(=O)N[C@@H](Cc1c[nH]c2ccccc12)C(=O)O [Compound 14, HGlyAsnTrpHisGlyThrAlaProAspTrpValTyrPheAlaHisLeuThrChaIleTrpOH] (H-GNWHGTAPDWVYFAHLT[Cha]IW-OH) — higher, 47.0%
- CC[C@H](C)[C@H](NC(=O)[C@H](Cc1cccs1)NC(=O)[C@@H](NC(=O)[C@H](CC(C)C)NC(=O)[C@H](Cc1c[nH]cn1)NC(=O)[C@H](C)NC(=O)[C@H](Cc1ccccc1)NC(=O)[C@H](Cc1ccc(O)cc1)NC(=O)[C@@H](NC(=O)[C@H](Cc1c[nH]c2ccccc12)NC(=O)[C@H](CC(=O)O)NC(=O)[C@@H]1CCCN1C(=O)[C@H](C)NC(=O)[C@@H](NC(=O)CNC(=O)[C@H](Cc1c[nH]cn1)NC(=O)[C@H](Cc1c[nH]c2ccccc12)NC(=O)[C@H](CC(N)=O)NC(=O)CN)[C@@H](C)O)C(C)C)[C@@H](C)O)C(=O)N[C@@H](Cc1c[nH]c2ccccc12)C(=O)O [Compound 17, HGlyAsnTrpHisGlyThrAlaProAspTrpValTyrPheAlaHisLeuThrThiIleTrpOH] (H-GNWHGTAPDWVYFAHLT[2Thi]IW-OH) — higher, 61.3%

From US5631222A, “Endothelin-antagonizing peptide” (Kyowa Hakko Kogyo Co., Ltd., priority 1993, dated 1997)
